Results as given in ChEMBL document CHEMBL1909046, “DrugMatrix in vitro pharmacology data”.

What was measured:
D(4) dopamine receptor = biological target: T1, D(4) dopamine receptor (Homo sapiens, UniProt P21917); test: DRUGMATRIX: Dopamine D4.2 radioligand binding (ligand: [3H] Spiperone); type: cell membranes, CHO-K1, Membrane; conditions: cho-k1; Not Active = under 50% inhibition at 10 µM
T1 sequence (P21917 whole entry): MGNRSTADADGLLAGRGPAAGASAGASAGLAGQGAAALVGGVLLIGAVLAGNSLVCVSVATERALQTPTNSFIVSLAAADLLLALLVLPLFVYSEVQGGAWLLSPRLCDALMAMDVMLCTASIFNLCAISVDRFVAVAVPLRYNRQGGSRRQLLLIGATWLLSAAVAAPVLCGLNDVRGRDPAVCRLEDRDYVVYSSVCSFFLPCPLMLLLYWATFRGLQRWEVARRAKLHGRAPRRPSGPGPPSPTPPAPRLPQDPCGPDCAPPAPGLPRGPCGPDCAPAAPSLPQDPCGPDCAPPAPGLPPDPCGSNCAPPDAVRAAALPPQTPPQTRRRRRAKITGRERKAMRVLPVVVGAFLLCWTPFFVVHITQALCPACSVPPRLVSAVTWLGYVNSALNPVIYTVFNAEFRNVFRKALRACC

Nitric oxide synthase 1 = Nitric oxide synthase 1 (Rattus norvegicus, UniProt P29476); type: tissue-based, Cerebellum; also: in other assays of this panel Not Active means under 50% inhibition at 10 µM
Chain of Nitric oxide synthase 1 (P29476 whole entry): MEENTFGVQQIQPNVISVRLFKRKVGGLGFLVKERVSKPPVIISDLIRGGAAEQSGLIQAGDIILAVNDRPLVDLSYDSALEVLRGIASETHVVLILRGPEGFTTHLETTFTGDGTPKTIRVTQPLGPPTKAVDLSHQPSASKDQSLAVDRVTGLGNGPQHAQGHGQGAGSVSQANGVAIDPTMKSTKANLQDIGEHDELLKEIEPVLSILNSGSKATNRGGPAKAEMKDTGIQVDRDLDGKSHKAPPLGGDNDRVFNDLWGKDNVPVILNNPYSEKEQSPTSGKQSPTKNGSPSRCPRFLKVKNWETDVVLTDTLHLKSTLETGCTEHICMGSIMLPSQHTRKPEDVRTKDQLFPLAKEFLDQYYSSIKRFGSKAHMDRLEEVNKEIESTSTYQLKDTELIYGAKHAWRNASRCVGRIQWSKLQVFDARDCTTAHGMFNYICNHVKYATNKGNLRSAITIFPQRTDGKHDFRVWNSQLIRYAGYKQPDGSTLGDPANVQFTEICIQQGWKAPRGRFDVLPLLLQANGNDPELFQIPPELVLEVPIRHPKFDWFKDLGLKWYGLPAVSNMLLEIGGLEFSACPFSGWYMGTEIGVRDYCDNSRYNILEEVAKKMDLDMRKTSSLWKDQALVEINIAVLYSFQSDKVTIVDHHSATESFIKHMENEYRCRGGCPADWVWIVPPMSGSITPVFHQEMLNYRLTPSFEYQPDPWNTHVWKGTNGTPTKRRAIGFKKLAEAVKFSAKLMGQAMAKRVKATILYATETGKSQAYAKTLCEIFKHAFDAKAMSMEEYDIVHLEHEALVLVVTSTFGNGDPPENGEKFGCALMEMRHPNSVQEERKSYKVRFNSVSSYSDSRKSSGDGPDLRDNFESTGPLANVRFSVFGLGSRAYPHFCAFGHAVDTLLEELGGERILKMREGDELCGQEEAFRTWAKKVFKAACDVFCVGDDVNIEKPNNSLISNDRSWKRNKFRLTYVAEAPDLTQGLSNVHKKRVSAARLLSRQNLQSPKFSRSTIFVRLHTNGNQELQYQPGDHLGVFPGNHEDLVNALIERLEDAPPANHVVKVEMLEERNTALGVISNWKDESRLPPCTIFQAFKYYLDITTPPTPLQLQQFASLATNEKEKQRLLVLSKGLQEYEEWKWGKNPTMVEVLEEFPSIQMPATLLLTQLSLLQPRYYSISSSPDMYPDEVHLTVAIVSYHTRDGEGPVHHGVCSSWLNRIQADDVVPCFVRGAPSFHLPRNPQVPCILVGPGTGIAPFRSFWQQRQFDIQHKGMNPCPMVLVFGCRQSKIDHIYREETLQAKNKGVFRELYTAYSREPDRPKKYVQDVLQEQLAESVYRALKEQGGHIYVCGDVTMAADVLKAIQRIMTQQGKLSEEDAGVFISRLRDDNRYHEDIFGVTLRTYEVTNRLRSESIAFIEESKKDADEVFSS

D(1A) dopamine receptor = D(1A) dopamine receptor (Homo sapiens, UniProt P21728); test: DRUGMATRIX: Dopamine D1 radioligand binding (ligand: [3H] SCH-23390); type: cell membranes, CHO, Membrane; conditions: cho; Not Active = under 50% inhibition at 10 µM
Chain of D(1A) dopamine receptor (P21728 whole entry): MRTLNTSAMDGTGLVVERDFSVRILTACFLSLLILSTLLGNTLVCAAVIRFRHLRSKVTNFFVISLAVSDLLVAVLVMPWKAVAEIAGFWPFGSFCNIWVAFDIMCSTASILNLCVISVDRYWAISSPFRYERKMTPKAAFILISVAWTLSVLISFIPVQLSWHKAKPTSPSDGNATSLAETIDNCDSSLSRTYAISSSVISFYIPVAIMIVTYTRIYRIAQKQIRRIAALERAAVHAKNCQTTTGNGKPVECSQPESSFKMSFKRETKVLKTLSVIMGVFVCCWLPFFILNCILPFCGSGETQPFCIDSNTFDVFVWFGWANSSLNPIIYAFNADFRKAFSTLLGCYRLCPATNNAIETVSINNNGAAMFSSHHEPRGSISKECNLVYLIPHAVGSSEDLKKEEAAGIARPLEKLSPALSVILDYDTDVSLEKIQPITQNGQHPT

[1] = DRUGMATRIX: Potassium Channel [KATP] radioligand binding (ligand: [3H] Glyburide); type: cell membranes, Membrane; conditions: hit-t15; Not Active = under 50% inhibition at 10 µM
Endothelin-1 receptor = biological target: T2, Endothelin-1 receptor (Homo sapiens, UniProt P25101); type: cell membranes, Membrane; conditions: cho-k1; also: in other assays of this panel Not Active means under 50% inhibition at 10 µM
T2 sequence (P25101 whole entry): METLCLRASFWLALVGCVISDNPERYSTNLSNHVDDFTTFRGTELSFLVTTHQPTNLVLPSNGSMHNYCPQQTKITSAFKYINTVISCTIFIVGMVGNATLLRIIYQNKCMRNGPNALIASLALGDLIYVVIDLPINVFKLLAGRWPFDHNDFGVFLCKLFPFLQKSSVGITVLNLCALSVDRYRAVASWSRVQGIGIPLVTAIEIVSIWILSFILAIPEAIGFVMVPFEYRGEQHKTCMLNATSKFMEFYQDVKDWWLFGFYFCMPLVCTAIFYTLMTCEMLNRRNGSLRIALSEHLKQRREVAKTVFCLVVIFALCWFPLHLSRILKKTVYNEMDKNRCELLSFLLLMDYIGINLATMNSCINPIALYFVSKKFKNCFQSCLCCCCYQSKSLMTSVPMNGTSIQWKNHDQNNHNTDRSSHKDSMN

Glycine receptor = Glycine receptor (Rattus norvegicus, UniProt P22771+P24524+P07727+P20781); type: cell membranes, Wistar, Spinal cord, Membrane; also: in other assays of this panel Not Active means under 50% inhibition at 10 µM
[2] = biological target: Vascular endothelial growth factor receptor 1 (Homo sapiens, UniProt P17948); type: cell-based; conditions: huvec; also: in other assays of this panel Not Active means under 50% inhibition at 10 µM
Chain of Vascular endothelial growth factor receptor 1 (P17948 whole entry): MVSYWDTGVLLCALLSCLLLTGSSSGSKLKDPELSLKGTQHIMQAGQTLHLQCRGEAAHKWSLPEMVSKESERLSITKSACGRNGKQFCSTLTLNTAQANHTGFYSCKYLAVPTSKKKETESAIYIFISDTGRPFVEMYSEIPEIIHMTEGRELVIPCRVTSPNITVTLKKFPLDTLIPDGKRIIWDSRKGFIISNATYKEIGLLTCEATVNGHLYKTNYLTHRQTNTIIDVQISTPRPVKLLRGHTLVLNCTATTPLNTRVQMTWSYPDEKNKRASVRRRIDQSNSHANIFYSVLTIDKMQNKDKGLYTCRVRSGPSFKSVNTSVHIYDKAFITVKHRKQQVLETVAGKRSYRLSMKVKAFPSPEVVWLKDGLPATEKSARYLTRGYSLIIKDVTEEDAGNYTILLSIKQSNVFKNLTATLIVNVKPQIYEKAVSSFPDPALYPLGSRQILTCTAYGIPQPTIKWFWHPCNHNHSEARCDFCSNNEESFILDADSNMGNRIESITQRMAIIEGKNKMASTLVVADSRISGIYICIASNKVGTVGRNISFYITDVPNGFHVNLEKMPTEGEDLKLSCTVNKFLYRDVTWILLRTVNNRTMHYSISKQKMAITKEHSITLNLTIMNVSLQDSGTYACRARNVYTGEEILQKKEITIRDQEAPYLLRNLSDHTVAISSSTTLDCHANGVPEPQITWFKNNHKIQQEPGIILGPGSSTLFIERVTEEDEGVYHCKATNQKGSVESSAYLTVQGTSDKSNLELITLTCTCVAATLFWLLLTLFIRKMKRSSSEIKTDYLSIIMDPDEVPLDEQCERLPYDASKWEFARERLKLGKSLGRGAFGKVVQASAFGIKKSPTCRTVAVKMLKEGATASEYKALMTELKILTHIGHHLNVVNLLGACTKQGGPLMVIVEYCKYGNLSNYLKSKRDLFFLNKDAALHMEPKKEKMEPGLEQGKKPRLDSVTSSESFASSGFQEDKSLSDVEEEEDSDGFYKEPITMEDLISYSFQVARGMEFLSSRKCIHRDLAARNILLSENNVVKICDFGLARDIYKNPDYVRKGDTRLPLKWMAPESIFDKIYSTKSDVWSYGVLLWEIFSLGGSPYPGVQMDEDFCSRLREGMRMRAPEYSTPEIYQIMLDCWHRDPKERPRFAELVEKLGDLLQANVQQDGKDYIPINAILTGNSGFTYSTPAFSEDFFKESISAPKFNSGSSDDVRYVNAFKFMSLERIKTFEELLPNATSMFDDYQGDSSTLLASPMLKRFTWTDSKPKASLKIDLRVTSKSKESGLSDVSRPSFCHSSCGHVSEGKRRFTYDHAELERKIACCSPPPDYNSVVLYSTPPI

[3] = biological target: T3, Vasoactive intestinal polypeptide receptor 1 (Homo sapiens, UniProt P32241); type: cell membranes, Membrane; conditions: ht-29; also: in other assays of this panel Not Active means under 50% inhibition at 10 µM
T3 sequence (P32241 whole entry): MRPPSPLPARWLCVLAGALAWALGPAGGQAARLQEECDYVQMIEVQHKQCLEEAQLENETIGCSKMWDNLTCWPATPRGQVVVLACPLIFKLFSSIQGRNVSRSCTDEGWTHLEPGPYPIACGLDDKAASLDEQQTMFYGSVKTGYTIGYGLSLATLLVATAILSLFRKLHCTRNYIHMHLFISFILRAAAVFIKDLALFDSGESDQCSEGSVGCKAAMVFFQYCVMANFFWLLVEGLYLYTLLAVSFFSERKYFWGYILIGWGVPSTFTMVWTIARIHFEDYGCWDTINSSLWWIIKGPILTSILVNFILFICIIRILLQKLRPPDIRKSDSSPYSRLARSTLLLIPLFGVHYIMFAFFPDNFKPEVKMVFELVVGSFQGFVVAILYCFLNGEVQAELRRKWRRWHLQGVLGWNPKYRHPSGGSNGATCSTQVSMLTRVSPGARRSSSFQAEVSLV

CC(N)Cc1c[nH]c2ccc(OCc3cccs3)cc12 (centres undefined) [BW-723C86]
Not Active: IC50 (D(4) dopamine receptor) | IC50 (Nitric oxide synthase 1) | IC50 (D(1A) dopamine receptor) | IC50 [1] | Ki [1] | IC50 (Endothelin-1 receptor) | IC50 (Glycine receptor) | IC50 [2] | IC50 [3]

c1ccc2c(c1)Nc1ccccc1S2 [PHENOTHIAZINE]
Not Active: IC50 (D(4) dopamine receptor) | IC50 (Nitric oxide synthase 1) | IC50 (D(1A) dopamine receptor) | IC50 [1] | Ki [1] | IC50 (Endothelin-1 receptor) | IC50 (Glycine receptor) | IC50 [2] | IC50 [3]

POVIDONE
Not Active: IC50 (D(4) dopamine receptor) | Ki (D(4) dopamine receptor) | IC50 (Nitric oxide synthase 1) | Ki (Nitric oxide synthase 1) | IC50 (D(1A) dopamine receptor) | Ki (D(1A) dopamine receptor) | IC50 [1] | Ki [1] | IC50 (Endothelin-1 receptor) | Ki (Endothelin-1 receptor) | IC50 (Glycine receptor) | Ki (Glycine receptor) | IC50 [2] | Ki [2] | IC50 [3] | Ki [3]

CCO [ALCOHOL]
Not Active: IC50 (D(4) dopamine receptor) | IC50 (Nitric oxide synthase 1) | IC50 (D(1A) dopamine receptor) | IC50 [1] | Ki [1] | IC50 (Endothelin-1 receptor) | IC50 (Glycine receptor) | IC50 [2] | IC50 [3]

CHROMIC CHLORIDE
Not Active: IC50 (D(4) dopamine receptor) | Ki (D(4) dopamine receptor) | IC50 (Nitric oxide synthase 1) | Ki (Nitric oxide synthase 1) | IC50 (D(1A) dopamine receptor) | Ki (D(1A) dopamine receptor) | IC50 [1] | Ki [1] | IC50 (Endothelin-1 receptor) | Ki (Endothelin-1 receptor) | IC50 (Glycine receptor) | Ki (Glycine receptor) | IC50 [2] | Ki [2] | IC50 [3] | Ki [3]

Nc1ccc(Cc2ccc(N)cc2)cc1
Not Active: IC50 (D(4) dopamine receptor) | IC50 (Nitric oxide synthase 1) | IC50 (D(1A) dopamine receptor) | IC50 [1] | Ki [1] | IC50 (Endothelin-1 receptor) | IC50 (Glycine receptor) | IC50 [2] | IC50 [3]

COc1cc([C@@H]2c3cc4c(cc3[C@H](O)[C@H]3COC(=O)[C@H]23)OCO4)cc(OC)c1OC [PODOFILOX]
Not Active: IC50 (D(4) dopamine receptor) | IC50 (Nitric oxide synthase 1) | IC50 (D(1A) dopamine receptor) | IC50 [1] | Ki [1] | IC50 (Endothelin-1 receptor) | IC50 (Glycine receptor) | IC50 [2] | IC50 [3]

OC[C@H]1OC2C3[C@@H](CO)OC(O[C@H]4[C@H](O)[C@@H](O)[C@@H](O[C@H]5[C@H](O)[C@@H](O)[C@@H](O[C@H]6[C@H](O)[C@@H](O)[C@@H](O[C@H]7[C@H](O)[C@@H](O)[C@@H](O[C@H]8[C@H](O)[C@@H](O)[C@@H](O[C@H]9[C@H](O)[C@@H](O)C(OC1[C@H](O)[C@H]2O)O[C@@H]9CO)O[C@@H]8CO)O[C@@H]7CO)O[C@@H]6CO)O[C@@H]5CO)O[C@@H]4CO)[C@H](O)[C@H]3O
Not Active: IC50 (D(4) dopamine receptor) | IC50 (Nitric oxide synthase 1) | IC50 (D(1A) dopamine receptor) | IC50 [1] | Ki [1] | IC50 (Endothelin-1 receptor) | IC50 (Glycine receptor) | IC50 [2] | IC50 [3]

Nc1ccc(C(=O)O)c(O)c1 [AMINOSALICYLIC ACID]
Not Active: IC50 (D(4) dopamine receptor) | IC50 (Nitric oxide synthase 1) | IC50 (D(1A) dopamine receptor) | IC50 [1] | Ki [1] | IC50 (Endothelin-1 receptor) | IC50 (Glycine receptor) | IC50 [2] | IC50 [3]

O=c1[nH]cnc2c1ncn2[C@H]1CC[C@@H](CO)O1 [DIDANOSINE]
Not Active: IC50 (D(4) dopamine receptor) | IC50 (Nitric oxide synthase 1) | IC50 (D(1A) dopamine receptor) | IC50 [1] | Ki [1] | IC50 (Endothelin-1 receptor) | IC50 (Glycine receptor) | IC50 [2] | IC50 [3]

CCCCCCNC(=O)n1cc(F)c(=O)[nH]c1=O [CARMOFUR]
Not Active: IC50 (D(4) dopamine receptor) | IC50 (Nitric oxide synthase 1) | IC50 (D(1A) dopamine receptor) | IC50 [1] | Ki [1] | IC50 (Endothelin-1 receptor) | IC50 (Glycine receptor) | IC50 [2] | IC50 [3]

C#C[C@]1(O)CC[C@H]2[C@@H]3CCC4=CC(=O)CC[C@@H]4[C@H]3CC[C@@]21C [NORETHINDRONE]
Not Active: IC50 (D(4) dopamine receptor) | IC50 (Nitric oxide synthase 1) | IC50 (D(1A) dopamine receptor) | IC50 [1] | Ki [1] | IC50 (Endothelin-1 receptor) | IC50 (Glycine receptor) | IC50 [2] | IC50 [3]

Cl.NC[C@H]1CC[C@H](C(=O)Oc2ccc(CCC(=O)O)cc2)CC1 [CETRAXATE HYDROCHLORIDE]
Not Active: IC50 (D(4) dopamine receptor) | IC50 (Nitric oxide synthase 1) | IC50 (D(1A) dopamine receptor) | IC50 [1] | Ki [1] | IC50 (Endothelin-1 receptor) | IC50 (Glycine receptor) | IC50 [2] | IC50 [3]

CC(C)Cn1cnc2c(N)nc3ccccc3c21 [IMIQUIMOD]
Not Active: IC50 (D(4) dopamine receptor) | IC50 (Nitric oxide synthase 1) | IC50 (D(1A) dopamine receptor) | IC50 [1] | Ki [1] | IC50 (Endothelin-1 receptor) | IC50 (Glycine receptor) | IC50 [2] | IC50 [3]

O=C1CN(/N=C/c2ccc([N+](=O)[O-])o2)C(=O)N1 [NITROFURANTOIN]
Not Active: IC50 (D(4) dopamine receptor) | IC50 (Nitric oxide synthase 1) | IC50 (D(1A) dopamine receptor) | IC50 [1] | Ki [1] | IC50 (Endothelin-1 receptor) | IC50 (Glycine receptor) | IC50 [2] | IC50 [3]
